Measurements published in patent US20110237455A1, “ARRAY ANALYSIS FOR ONLINE DETECTION” (EPPENDORF AG, priority 2010, published 2011).
“Also recorded” adds a separate entry of the source.

Columns and labels:
[1] = Absorbance spectrum of light absorbing agents; format: physicochemical; conditions: light absorbing agent at 1%; for Absorbance spectrum (estimated min-max): estimated width of band covering around 90% of the dye absorbance
Source text: (§1) Table 1 summarizes the properties of different light absorbing agents tested according to the invention. The Table presents the absorbance peak and the estimated width of the absorbance band, based on the experimental spectra covering around 90% of the dye absorbance. The intrinsic fluorescence of the agents at the emission wavelength of 570 nm (green channel) or at the emission of 666 nm (red channel) is indicated. Intrinsic fluorescence is expressed as the percentage of the fluorescence compared to cy3 fluorescence if present at 1 μM for green channel (=100%) or Oyster645 fluorescence if present at 1 μM for red channel (=100%). Experimental details are given in example 4.

[2] = tested on: SuperSalt Taq Polymerase; assay: Compatibility of dyes with PCR amplification (no inhibition of the PCR); format: biochemical; conditions: highest tested concentration which did not inhibit the PCR
Experimental: The Table gives the upper concentration of the agent at which there is no inhibition of the PCR. Two concentrations of Taq polymerase were compared: 5 and 10 units. Experimental details are given in example 3.
PCR was designed for the amplification of the 35 promoter element of DNA sample of a genetically modified organism (GMO).
For each tested light absorbing agent, PCR were performed with different concentrations of agent: 0.005, 0.01, 0.02, 0.05, 0.1, 0.5, 1 and 2% and either 5 U or 10 U of Taq polymerase in PCR mix. Controls tubes were performed without light absorbing agent with 5 U or 10 U of enzyme.
The PCR performed in PCR tubes in a thermocycler (Eppendorf, Hamburg, Germany). Samples were pre incubated for 10 min at 25° C. and then were first denatured at 94° C. for 3 min. Then 40 cycles of amplification were performed consisting of 30 sec at 95° C., 90 sec at 60° C. and 30 sec at 72° C.
After PCR, 1 μL of the PCR product was analyzed by electrophoresis (Agilent Technologies, 2100 Bioanalyzer). The expected size of the amplicon was 79 bp.

[3] = Intrinsic fluorescence of light absorbing agents at the emission wavelengths (green/red channel); format: physicochemical; conditions: for Intrinsic fluorescence (emission 666 nm) in % / Intrinsic fluorescence (emission 570 nm) in %: agent at 1%; for Intrinsic fluorescence (emission 666 nm) in %: compared to Oyster645 fluorescence at 1 μM (=100%); for Fluorescence at the emission wavelength of 570 nm (in words) / Intrinsic fluorescence (emission 570 nm) in %: green channel; for Intrinsic fluorescence (emission 570 nm) in %: compared to cy3 fluorescence at 1 μM (=100%)
Source text: This concept is exemplified in Table 1. The dye Azure A is a good example. It can be used for the reduction of the fluorescence of a solution at the excitation/emission wavelength of 532/570 (green channel). […] However, the dye is fluorescent at the emission wavelength of 666 nm used in the red channel.
The dye Azure A is thus not capable of reducing the fluorescent of the solution beyond the intrinsic fluorescence of the light absorbing agent at the emission wavelength in the red channel. In presence of this agent, the fluorescence is about 38% (data not shown) the fluorescence value of the solution in the absence of light absorbing agent (=100%).
as §1

Molecule | Absorbance spectrum peak [1] | Absorbance spectrum (estimated min-max) [1] | Maximum concentration in PCR (%) with 5 U Taq polymerase [2] | Intrinsic fluorescence (emission 666 nm) in % ([3]; red channel) | Fluorescence at the emission wavelength of 570 nm (in words) [3] | Fluorescence at the emission wavelength of 666 nm (in words) ([3]; red channel) | Fluorescence of the solution in presence of the agent ([3]; red channel, solution without light absorbing agent = 100%, data not shown) | Maximum concentration in PCR (%) with 10 U Taq polymerase [2] | Intrinsic fluorescence (emission 570 nm) in % [3]
O=C1/C(=C2\Nc3ccc(S(=O)(=O)[O-])cc3C2=O)Nc2ccc(S(=O)(=O)[O-])cc21.[Na+].[Na+] [(C) E132, E132] | 609 nm | 525-675 | 0.05% | – | – | – | – | – | –
CN(C)c1ccc2nc3ccc(N)cc3[s+]c2c1.[Cl-] [(E) Azure A, Azure A] | 636 nm | 450-700 | – | 38% | does not fluoresce | fluorescent | about 38% | – | –
O=S(=O)([O-])c1cc(S(=O)(=O)[O-])c2c(N=Nc3ccc(S(=O)(=O)[O-])c4ccccc34)c(O)ccc2c1.[Na+].[Na+].[Na+] [(G) E124, E124] | 508 nm | <400-585 | – | 18% | fluorescent | fluorescent | – | – | 18%
CCN(Cc1cccc(S(=O)(=O)[O-])c1)c1ccc(C(=C2C=CC(=[N+](CC)Cc3cccc(S(=O)(=O)[O-])c3)C=C2)c2ccccc2S(=O)(=O)[O-])cc1.[Na+].[Na+] [(L) E133, E133] | 635 nm | 525-690 | 0.05% | 33% | – | shows a basal fluorescence; also recorded: fluorescent | – | 0.1% | –
Black Intense [(A) Black Intense] | 565 nm | <400-675 | 0.05% | – | – | – | – | 0.1% | –
Blue Dextran [(B) Blue Dextran] | – | – | 0.5% | – | – | – | – | 1% | –
Brilliant Blue [(F) Brilliant Blue] | 585 nm | 500-690 | – | – | – | – | – | – | –
Ferritin [(H) Ferritin] | (no peak) | below 500 | – | 15% | fluorescent | fluorescent | – | – | 40%

Second part, led by results:

Absorbance spectrum peak [1] | Absorbance spectrum (estimated min-max) [1] | Maximum concentration in PCR (%) with 5 U Taq polymerase [2] | Intrinsic fluorescence (emission 666 nm) in % ([3]; red channel) | Fluorescence at the emission wavelength of 570 nm (in words) [3] | Fluorescence at the emission wavelength of 666 nm (in words) ([3]; red channel) | Fluorescence of the solution in presence of the agent ([3]; red channel, solution without light absorbing agent = 100%, data not shown) | Maximum concentration in PCR (%) with 10 U Taq polymerase [2] | Molecule | Intrinsic fluorescence (emission 570 nm) in % [3]
571 nm | 475-670 | 0.05% | – | – | – | – | 0.1% | CC(=O)Nc1ccc(S(=O)(=O)[O-])c2cc(S(=O)(=O)[O-])c(N=Nc3ccc(N=Nc4ccc(S(=O)(=O)[O-])cc4)c4ccc(S(=O)(=O)[O-])cc34)c(O)c12.[Na+].[Na+].[Na+].[Na+] [(J) Black Brilliant, Black Brilliant] | –
635 nm | 525-690 | 0.05% | 47% | – | fluorescent | – | 0.1% | Blue Intense [(K) Blue Intense] | –
– | below 700 | – | – | – | – | – | – | Melanine [(M) Melanine] | –
